Laboratory results reported in paper PMC8875508, “Cytotoxic Phenylpropanoid Derivatives and Alkaloids from the Flowers of Pancratium maritimum L” (Plants, 2022).

Columns and labels:
Assay type in all cases: cell-based
MDA-MB-231 cells = test: MTT antiproliferative assay, MDA-MB-231; conditions: Homo sapiens, 72 h, mean of three independent experiments, cutoff 10 µM, read-out: IC50 (Mean + SEM)
Protocol: (§1) HCT116 (Colorectal carcinoma, ATCC CCL-247) and HeLa (human cervical carcinoma, ATCC CCL-2) cells were cultured in RPMI 1640 medium with 10% FBS, and 1% penicillin–streptomycin, while MDA-MB-231 cells (triple-negative breast cancer, ATCC HTB-26) were cultured in DMEM medium with 1% penicillin–streptomycin and 10% FBS.
(§2) The evaluation of the antiproliferative effects compounds 1–7 were performed using MTT assay, as reported earlier. In short, the cells were incubated at 37 °C overnight in 5% CO2/air. After that, the compounds were added at the top row of a 96-well microtiter plate; a descendant serial dilution (1:4) of the concentration was performed followed by incubation of the cells with the compounds for 72 h. Using the Cell Titer 96 AQueous non-radioactive cell proliferation protocol, the cell viability was estimated at 490 nm on a Molecular Devices Emax microplate reader. The IC50 values of the compounds (expressed in μM) were evaluated using the program SoftMax Pro. A concentration of 10 µM was set as a cutoff value in this assay.

HeLa cells = test: MTT antiproliferative assay, HeLa; conditions: Homo sapiens, 72 h, mean of three independent experiments, cutoff 10 µM, read-out: IC50 (Mean + SEM)
Protocol: as §1, §2

HCT 116 cells = test: MTT antiproliferative assay, HCT 116; conditions: Homo sapiens, 72 h, mean of three independent experiments, cutoff 10 µM, read-out: IC50 (Mean + SEM)
Protocol: as §1, §2

[1] = test system: normal human dermal fibroblasts (NHDF); test: MTT assay, normal human dermal fibroblasts
Protocol: The normal human dermal fibroblasts (NHDF) cells were cultured in fibroblast basal medium complemented with penicillin–streptomycin (1% v/v), insulin (5 µg/mL), heat-inactivated fetal bovine serum (FBS) (2% v/v), and basic fibroblast growth factor (1 ng/mL).
as §2

[2] = test system: HCT116, HeLa, and MDA-MB-231 cell lines; test: MTT assay, average over the cancerous cell lines; conditions: Homo sapiens; average of HCT116, HeLa and MDA-MB-231; read-out: average IC50 against the cancerous cell lines
Protocol: as §1, §2

IC50 (MDA-MB-231 cells)	IC50 (HeLa cells)	IC50 (HCT 116 cells)	Compound	IC50 ([1]; Homo sapiens, NHDF, MTT, 72 h, mean of three independent experiments, read-out: IC50 (Mean + SEM))	selectivity towards the tested cancer cell lines versus NHDF ([1]; NHDF IC50 6.6 µM versus average IC50 0.099 µM of the cancer cell lines)	IC50 [2]
≥ 10 µM	≥ 10 µM	≥ 10 µM	COC(=O)c1ccc(O[C@@H]2O[C@H](CO)[C@@H](O)[C@H](O)[C@H]2O)c(OC)c1 [Compound 2, 3-methoxy-4-(β-D-glucopyranosyloxy)benzoic acid methyl ester]	–	–	–
13 ± 0.3 µM	12.3 ± 0.25 µM	4.6 ± 0.23 µM	O=c1[nH]cc(F)c(=O)[nH]1 [Compound 5-FU, 5-Fluorouracil, reference compound]	–	–	–
≥ 10 µM	≥ 10 µM	≥ 10 µM	COc1ccc(CCCO[C@@H]2O[C@H](CO)[C@@H](O)[C@H](O)[C@H]2O)cc1 [Compound 3, 3-(4-methoxyphenyl)propan-1-ol-1-O-β-D-glucopyranoside]	–	–	–
≥ 10 µM	≥ 10 µM	≥ 10 µM	COC(=O)/C=C\c1ccc(O[C@@H]2O[C@H](CO)[C@@H](O)[C@H](O)[C@H]2O)cc1 [Compound 1, 3-[4-(β-D-glucopyranosyloxy)phenyl]-2-(Z)-propenoic acid methyl ester]	–	–	–
≥ 10 µM	≥ 10 µM	≥ 10 µM	O=C(O)/C=C/c1ccc(O)c(O)c1 [Compound 5, caffeic acid]	–	–	–

Compound	IC50 (MDA-MB-231 cells)	IC50 (HeLa cells)	IC50 (HCT 116 cells)	IC50 ([1]; Homo sapiens, NHDF, MTT, 72 h, mean of three independent experiments, read-out: IC50 (Mean + SEM))	selectivity towards the tested cancer cell lines versus NHDF ([1]; NHDF IC50 6.6 µM versus average IC50 0.099 µM of the cancer cell lines)	IC50 [2]
O=C1N[C@H]2[C@H](O)[C@H](O)[C@@H](O)[C@H](O)[C@@H]2c2cc3c(c(O)c21)OCO3 [Compound 7, pancratistatin]	0.14 ± 0.002 µM	0.058 ± 0.001 µM	0.1 ± 0.005 µM	6.6 ± 0.034 µM	66 fold	0.099 µM
